Columns and labels:
T. b. brucei = experiment: In vitro drug sensitivity assay, bloodstream-form T. b. brucei; format: cell-based; settings: Trypanosoma brucei, n = 12
Description: 1.1 In vitro drug sensitivity assays - Trypanosoma brucei brucei
Drug sensitivity assays were carried out with bloodstream-form (BSF) T. b. brucei ‘single marker’ S427 cells grown at 37°C with 5% CO2 in HMI-9T medium,1 as previously described.2 1.2 In vitro drug sensitivity assays - Trypanosoma congolense
EC50 values for test compounds against T. congolense (IL3000 strain) were conducted as previously described3 with minor modifications.4 Briefly, trypanosome cell densities were determined using a CASY cell counter (Schärfe) and diluted to a seeding density of 2 x 105 trypanosomes/mL. […] Absorbance was read using a SpectraMax (Gemini XS) fluorescence reader at an excitation wavelength of 536 nm and an emission wavelength of 588 nm. EC50 values were determined using SOFTmax Pro 5.2 analysis software. […]
Since T. vivax cannot be cultured axenically, BSF trypanosomes were harvested from an infected mouse with high parasitemia via cardiac puncture and used directly in ex vivo assays. EC50 values were determined against T, vivax (STIB 719/ ILRAD 560) as previously described3, with minor modifications. Briefly, cell densities were determined using a Neubauer chamber and then diluted to a seeding density of 4 x 105 trypanosomes / mL. […] Absorbance was read using a SpectraMax (Gemini XS) fluorescence reader at an excitation wavelength of 536 nm and an emission wavelength of 588 nm. […]

[1] = tested on: T. congolense (KONT2/133); experiment: Cattle efficacy for compound 2, intravenous infusion (Clinvet), T. congolense; format: in vivo, Trypanosoma congolense; settings: Friesian-Holstein cattle infected with T. congolense; n = 4; at 100 days
Description: Unfortunately, an injection site tolerability issue arose during the pharmacokinetic study in cattle that was not evident in rats. […] To circumvent these issues, compound 2 was assessed in an in vivo proof of concept efficacy study in Friesian-Holstein cattle using an IV infusion regimen. The study was conducted in four animals infected with T. congolense (KONT2/133) and four animals infected with T. vivax (STIB719). Three additional animals infected with each strain formed the vehicle control groups and were dosed IV once daily with saline. Pharmacokinetic modeling was used to define a dosing regimen that mimics the blood concentration–time profile that delivered cure in mice (10 mg/kg SC once daily for 2 days, with a Ctrough of >20 ng/mL (>38 nM)). A continuous infusion over 36 h and two loading doses 24 h apart were required. […]
Response to treatment was determined by monitoring parasitaemia twice a week until day 21. […]
In each of the cattle efficacy studies (3.3, 3.4 and 3.5), efficacy was assessed primarily on absence of recrudescence of parasitaemia for 100 days after treatment administration together with improvements in Packed Cell Volume, body weight and clinical signs of infected compared with uninfected animals. […]

`CC(C)CS(=O)(=O)N[C@H]1CC[C@H](Nc2nc(N)c(C(=O)c3c(F)cccc3F)s2)CC1` [Compound 1, N-((trans)-4-((4-Amino-5-(2,6-difluorobenzoyl)thiazol-2-yl)amino)cyclohexyl)-2-methylpropane-1-sulfonamide] gave an EC50 (T. b. brucei) of 1.3 nM.
In the case of `CC(C)CS(=O)(=O)N[C@H]1CC[C@H](Nc2nc(N)c(C(=O)c3c(F)cc(CN(C)C)cc3F)s2)CC1` [Compound 2, N-(trans)-[4-[[4-Amino-5-[4-(dimethylaminomethyl)-2,6-difluoro-benzoyl]thiazol-2-yl]amino]cyclohexyl]-2-methyl-propane-1-sulfonamide], the “Efficacy in cattle, IV bolus and infusion” value [1] is reported as “cured”.
